{"source": "paper PMC9260081", "about": "“Design, Synthesis, and Evaluation of Anticonvulsant Activities of New Triazolopyrimidine Derivatives” (Frontiers in Chemistry, 2022)", "key": {"[1]": {"test_system": "BIC-induced seizures", "assay": "Bicuculline (BIC)-induced seizure test", "assay_type": "in vivo", "conditions": "BIC 5.4 mg/kg, compound 30 mg/kg, test time 0.5 h, percentage of animals, 10 mice", "protocol": "(§1) Male Kunming mice with weights from 18 to 22 g were used in all the pharmacological experiments. The mice were housed in the standard cages with 10 each, where a controlled temperature (25°C ± 2°C) with a 12 h light/dark cycle was maintained. All animals had free access to food and water. All experiments and procedures involving animals were carried out according to the Guide for the Care and Use of Laboratory Animals (National Academies Press, Washington, D.C., United States). Approval from the local medical ethical committee was obtained before the experiment.\nIn the BIC-induced seizure test, groups of 10 mice were administered with 30 mg/kg of test samples or vehicle. Then, 30 min later, the minimum dose of BIC (5.4 mg/kg) that could completely induce seizures for mice was subcutaneously injected into the test mice. The mice were placed into separate cages each, and the number of clonic seizures, tonic seizures, and mortality was recorded for 30 min."}, "[2]": {"test_system": "PTZ-induced seizures", "assay": "Subcutaneous pentylenetetrazole (PTZ) test", "assay_type": "in vivo, mice", "conditions": "for ED50 / minimal effective dose: Mus musculus, mice; for ED50 / PI scPTZ, protective index (TD50/ED50) / minimal effective dose: ip; for ED50: 95% confidence interval in brackets, read-out: ED50 scPTZ; for PI scPTZ, protective index (TD50/ED50): male, Kunming, mouse, in vivo; for PTZ model, number of animals protected/number of animals tested: 30 mg/kg, 0.5 h; for minimal effective dose: dosages 30, 100, 300 mg/kg, read-out: PTZ screening, minimum dose whereby bioactivity was demonstrated in half or more of the mice", "protocol": "as §1\nIn the PTZ test, mice were subcutaneously administered with PTZ at the dose of 85 mg/kg. At this dose, mice can be elicited a threshold seizure characterized by an episode of clonic spasms and tonic spasms. After being treated with test compounds at doses of 300, 100, and 30 mg/kg, the mice were considered protected if a single episode of clonic spasms of more than 5 s duration was not obtained. The quantitative anticonvulsant activity (ED50) in the PTZ model was determined and calculated with the same method described in the MES test."}, "[3]": {"test_system": "MES-induced seizures", "assay": "Maximal electroshock seizure (MES) test", "assay_type": "in vivo, mice", "conditions": "for ED50 / minimal effective dose: Mus musculus, ip, mice; for ED50: 95% confidence interval in brackets, read-out: ED50 MES; for PI MES, protective index (TD50/ED50): TD50 rotarod / ED50 MES, mice i.p.; for MES model, number of animals protected/number of animals tested: 30 mg/kg, 0.5 h; for minimal effective dose: dosages 30, 100, 300 mg/kg, read-out: MES screening, minimum dose whereby bioactivity was demonstrated in half or more of the mice", "protocol": "as §1\nIn the MES test, mice were subjected to ear stimulation using a 0.2 s 60-Hz 50-mA alternating current to elicit seizures. Tonic hind limb extension was considered as the seizure occurring, and the vanishing of tonic hind limb extension indicates the protection against the MES-induced seizures. Mice were injected intraperitoneally with test compounds at doses of 300, 100, and 30 mg/kg to evaluate their general anticonvulsant activity. Half and 4 h intervals were chosen to test the anti-MES activity. […] A series of doses of the tested compounds were injected into the mice with 10 in one group."}, "[4]": {"assay": "Neurotoxicity screening (rotarod test)", "assay_type": "in vivo", "conditions": "male, Kunming, mouse, in vivo, ip; rotarod, mice; 95% confidence interval in brackets", "protocol": "as §1\n(§2) The rotarod test was used to evaluate the neurotoxicity of the synthesized compounds. Before the formal experiments, mice were trained to climb on a rotating rod of diameter 3.2 cm with the rotation speed of 10 rpm. Test compounds in the three doses were intraperitoneally injected into the trained mice. […] The rough neurotoxic dose was obtained in which mice cannot maintain equilibrium on the rod for at least 1 min. The quantitative neurotoxic dose (TD50) of the test compounds was measured and calculated with the same method described in the MES test."}, "[5]": {"test_system": "3-MP-induced seizures", "assay": "3-Mercaptopropionic acid (3-MP)-induced seizure test", "assay_type": "in vivo", "conditions": "3-MP 60 mg/kg; compound 30 mg/kg, test time 0.5 h; percentage of animals, 10 mice", "protocol": "as §1\nIn 3-MP–induced seizure test, groups of 10 mice were administered with 30 mg/kg of test samples or vehicle. After 30 min, the minimum dose of 3-MP (60 mg/kg) that could completely induce seizures for mice was intraperitoneally injected into the test mice. The mice were placed into separate cages each, and the number of clonic seizures, tonic seizures, and mortality was recorded for 30 min."}, "[6]": {"biological_target": "GABAA BZD receptor", "assay": "Radioligand receptor binding assay ([3H]-flumazenil competition)", "conditions": "rat brain membranes"}, "[7]": {"test_system": "ability to maintain equilibrium on rotating rod", "assay": "Neurotoxicity screening (rotarod test)", "assay_type": "in vivo", "conditions": "i.p., dosages 30, 100, 300 mg/kg", "protocol": "as §1, §2"}, "[8]": {"conditions": "pretreated with flumazenil (FMZ) 10 mg/kg 15 min before seizure induction"}, "[9]": {"conditions": "pretreated with thiosemicarbazide (TSC) 25 mg/kg/day for 3 days"}}, "note": "“And” between values parts separate entries of the source, which are not always exact repeats. Identical values can stand only once. Like-named read-outs stand apart in the source and are kept apart here. Marks after values point to notes of the source that are not given here.", "data": [{"smiles": "NC(=O)N1c2ccccc2C=Cc2ccccc21", "note": "[Carbamazepine, reference compound]", "values": [{"measurement": "Clonic seizure (%)", "setting": "[1]", "result": 100, "unit": "%"}, {"measurement": "Lethality (%)", "setting": "[1]", "result": "20** %"}, {"measurement": "Tonic seizure (%)", "setting": "[1]", "result": "0*** %"}, {"measurement": "Lethality (%)", "setting": "[1]; listed as carbamazepine", "result": "significantly inhibited"}, {"measurement": "Tonic seizure (%)", "setting": "[1]; listed as carbamazepine", "result": "significantly inhibited"}, {"measurement": "ED50", "setting": "[2]", "result": "> 100", "unit": "mg/kg"}, {"measurement": "PI scPTZ, protective index (TD50/ED50)", "setting": "[2]", "result": "<0.44"}, {"measurement": "ED50", "setting": "[3]", "result": 9.8, "unit": "mg/kg"}, {"measurement": "PI MES, protective index (TD50/ED50)", "setting": "[3]", "result": 4.5}, {"measurement": "TD50 at 30 min", "setting": "[4]", "result": 44, "unit": "mg/kg"}, {"measurement": "Clonic seizure (%)", "setting": "[5]", "result": 100, "unit": "%"}, {"measurement": "Lethality (%)", "setting": "[5]", "result": "0** %"}, {"measurement": "Tonic seizure (%)", "setting": "[5]", "result": "0*** %"}]}, {"smiles": "CCCCCCOc1ccc(-c2ccnc3ncnn23)cc1", "note": "[Compound 6d, 7-(4-(Hexyloxy)phenyl)-[1,2,4]triazolo[1,5-a]pyrimidine]", "values": [{"measurement": "Clonic seizure (%)", "setting": "[1]", "result": 10, "unit": "%"}, {"measurement": "Lethality (%)", "setting": "[1]", "result": 0, "unit": "%"}, {"measurement": "Tonic seizure (%)", "setting": "[1]", "result": 0, "unit": "%"}, {"measurement": "PTZ model, number of animals protected/number of animals tested", "setting": "[2]; [8]", "result": "completely reversed and 0/5***"}, {"measurement": "PTZ model, number of animals protected/number of animals tested", "setting": "[2]; [9]", "result": "completely reversed and 0/5***"}, {"measurement": "PTZ model, number of animals protected/number of animals tested", "setting": "[2]; pretreatment with saline", "result": "full protection and 5/5"}, {"measurement": "minimal effective dose", "setting": "[2]; 0.5 h after injection", "result": 30, "unit": "mg/kg"}, {"measurement": "minimal effective dose", "setting": "[2]; 4 h after injection", "result": "> 300", "unit": "mg/kg"}, {"measurement": "ED50", "setting": "[2]", "result": 14.1, "unit": "mg/kg"}, {"measurement": "PI scPTZ, protective index (TD50/ED50)", "setting": "[2]", "result": 22.5}, {"measurement": "MES model, number of animals protected/number of animals tested", "setting": "[3]; [8]", "result": "completely reversed and 0/5***"}, {"measurement": "MES model, number of animals protected/number of animals tested", "setting": "[3]; [9]", "result": "completely reversed and 0/5***"}, {"measurement": "MES model, number of animals protected/number of animals tested", "setting": "[3]; pretreatment with saline", "result": "full protection and completely protected and 5/5 ^c and 5/5"}, {"measurement": "minimal effective dose", "setting": "[3]; 0.5 h after injection", "result": 30, "unit": "mg/kg"}, {"measurement": "minimal effective dose", "setting": "[3]; 4 h after injection", "result": 100, "unit": "mg/kg"}, {"measurement": "ED50", "setting": "[3]", "result": 15.8, "unit": "mg/kg"}, {"measurement": "PI MES, protective index (TD50/ED50)", "setting": "[3]", "result": 20.1}, {"measurement": "IC50", "setting": "[6]; competition with 0.5 nM [3H]-flumazenil, 95% CI in brackets", "result": 8.4, "unit": "nM"}, {"measurement": "Ki", "setting": "[6]; competition with [3H]-flumazenil, Cheng–Prusoff", "result": 3.9, "unit": "nM"}, {"measurement": "TD50 at 30 min", "setting": "[4]", "result": 317, "unit": "mg/kg"}, {"measurement": "NT screening (rotarod), minimum neurotoxic dose in half or more of the mice", "setting": "[7]; 0.5 h after injection", "result": 300, "unit": "mg/kg"}, {"measurement": "NT screening (rotarod), minimum neurotoxic dose in half or more of the mice", "setting": "[7]; 4 h after injection", "result": "— (A dash indicates the absence of anticonvulsant activity and neurotoxicity at the maximum dose administered (300 mg/kg))"}]}, {"smiles": "Clc1ccccc1-c1ccnc2ncnn12", "note": "[Compound 3c, 7-(2-Chlorophenyl)-[1,2,4]triazolo[1,5-a]pyrimidine]", "values": [{"measurement": "melting point", "result": "148 to 149", "unit": "°C"}, {"measurement": "minimal effective dose", "setting": "[2]; 0.5 h after injection", "result": 100, "unit": "mg/kg"}, {"measurement": "minimal effective dose", "setting": "[2]; 4 h after injection", "result": "> 300", "unit": "mg/kg"}, {"measurement": "minimal effective dose", "setting": "[3]; 0.5 h after injection", "result": 100, "unit": "mg/kg"}, {"measurement": "minimal effective dose", "setting": "[3]; 4 h after injection", "result": "> 300", "unit": "mg/kg"}, {"measurement": "NT screening (rotarod), minimum neurotoxic dose in half or more of the mice", "setting": "[7]; 0.5 h after injection", "result": "— (A dash indicates the absence of anticonvulsant activity and neurotoxicity at the maximum dose administered (300 mg/kg))"}, {"measurement": "NT screening (rotarod), minimum neurotoxic dose in half or more of the mice", "setting": "[7]; 4 h after injection", "result": "— (A dash indicates the absence of anticonvulsant activity and neurotoxicity at the maximum dose administered (300 mg/kg))"}]}, {"smiles": "c1ccc(-c2ccnc3ncnn23)cc1", "note": "[Compound 3a, 7-Phenyl-[1,2,4]triazolo[1,5-a]pyrimidine]", "values": [{"measurement": "melting point", "result": "142 to 143", "unit": "°C"}, {"measurement": "minimal effective dose", "setting": "[2]; 0.5 h after injection", "result": 100, "unit": "mg/kg"}, {"measurement": "minimal effective dose", "setting": "[2]; 4 h after injection", "result": "> 300", "unit": "mg/kg"}, {"measurement": "minimal effective dose", "setting": "[3]; 0.5 h after injection", "result": 300, "unit": "mg/kg"}, {"measurement": "minimal effective dose", "setting": "[3]; 4 h after injection", "result": "> 300", "unit": "mg/kg"}, {"measurement": "NT screening (rotarod), minimum neurotoxic dose in half or more of the mice", "setting": "[7]; 0.5 h after injection", "result": "— (A dash indicates the absence of anticonvulsant activity and neurotoxicity at the maximum dose administered (300 mg/kg))"}, {"measurement": "NT screening (rotarod), minimum neurotoxic dose in half or more of the mice", "setting": "[7]; 4 h after injection", "result": "— (A dash indicates the absence of anticonvulsant activity and neurotoxicity at the maximum dose administered (300 mg/kg))"}]}]}
